Source: BindingDB's records for doi:10.1016/j.bmcl.2005.02.011 (Florida Institute of Technology, 2005)

Assay: Effective concentration for DP2 mediated chemotaxis in eosinophils

EC50	SMILES
128 nM	CCCCC[C@](C)(O)/C=C/[C@H]1C(=O)C[C@H](O)[C@@H]1C/C=C/CCCC(=O)O
10 nM	CCCCC[C@H](O)/C=C/[C@H]1C(=O)C[C@H](O)[C@@H]1C/C=C/CCCC(=O)O [(Z)-7-[(1R,2R,5S)-5-Hydroxy-2-((E)-(S)-3-hydroxy-oct-1-enyl)-3-oxo-cyclopentyl]-hept-5-enoic acid]
1.7 nM	CCCCC[C@@](C)(O)/C=C/[C@H]1C(=O)C[C@H](O)[C@@H]1C/C=C/CCCC(=O)O [(Z)-7-[(1R,4S,5R)-5-Hydroxy-2-((R)-3-hydroxy-3-methyl-oct-1-enyl)-3-oxo-cyclopentyl]-hept-5-enoic acid]
